Reference: US11053204B2, “Pyrimidinyloxy benzene derivatives as herbicides” (FMC Corporation, priority 2015, dated 2021)

Columns and labels:
Format in all cases: in vivo
[1] = system: ducksalad (Heteranthera limosa); test: Test B flooded paddy test, plant response rating; details: 250 g ai/ha; Flood; scale of 0 to 100 where 0 is no effect and 100 is complete control; 13 to 15 days
Procedure, shortened: (§1)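 Compound was added to standing water 3 cm above soil, flood maintained, and plants held in a greenhouse before visual scoring against controls at 13 to 15 days.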

[2] = system: barnyardgrass (Echinochloa crus-galli); test: Test B flooded paddy test, plant response rating; details: 250 g ai/ha; Flood; scale of 0 to 100 where 0 is no effect and 100 is complete control; 13 to 15 days
Procedure, shortened: as §1

rice (Oryza sativa) = test: Test B flooded paddy test, plant response rating; details: 250 g ai/ha; Flood; scale of 0 to 100 where 0 is no effect and 100 is complete control; 13 to 15 days
Procedure, shortened: as §1

[3] = system: sedge, umbrella (small-flower umbrella sedge, Cyperus difformis); test: Test B flooded paddy test, plant response rating; details: 250 g ai/ha; Flood; scale of 0 to 100 where 0 is no effect and 100 is complete control; 13 to 15 days
Procedure, shortened: as §1

[4] = system: wheat (Triticum aestivum); test: Test A postemergence, visual injury rating
Procedure, shortened: (§2)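 Scoring: eye-based comparison with untreated controls, 0 for no effect through 100 for complete control, at about day 10. Treatments: directed soil spray preemergence; foliar spray postemergence on 2–10 cm plants at the one- to two-leaf stage. Medium: loam soil with sand.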

[5] = system: blackgrass (Alopecurus myosuroides); test: Test A postemergence, visual injury rating
Procedure, shortened: as §2

[6] = system: Italian ryegrass (Lolium multiflorum); test: Test A postemergence, visual injury rating
Procedure, shortened: as §2

corn (Zea mays) = test: Test A postemergence, visual injury rating
Procedure, shortened: as §2

[7] = system: galium (catchweed bedstraw, Galium aparine); test: Test A postemergence, visual injury rating
Procedure, shortened: as §2

[8] = system: barnyardgrass (Echinochloa crus-galli); test: Test A postemergence, visual injury rating; details: 0 is no effect, 100 is complete control; for Barnyardgrass plant response rating: 0 to 100 scale, approximately 10 days
Procedure, shortened: as §2

[9] = system: pigweed (Amaranthus retroflexus); test: Test A postemergence, visual injury rating
Procedure, shortened: as §2

kochia (Kochia scoparia) [10] = test: Test A postemergence, visual injury rating
Procedure, shortened: as §2

[11] = system: ragweed (common ragweed, Ambrosia elatior); test: Test A postemergence, visual injury rating
Procedure, shortened: as §2

[12] = system: giant foxtail (Setaria faberii); test: Test A postemergence, visual injury rating
Procedure, shortened: as §2

[13] = system: Italian ryegrass (Lolium multiflorum); test: Test A preemergence, visual injury rating
Procedure, shortened: as §2

[14] = system: barnyardgrass (Echinochloa crus-galli); test: Test A preemergence, visual injury rating
Procedure, shortened: as §2

[15] = system: pigweed (Amaranthus retroflexus); test: Test A preemergence, visual injury rating
Procedure, shortened: as §2

kochia (Kochia scoparia) [16] = test: Test A preemergence, visual injury rating
Procedure, shortened: as §2

[17] = system: ragweed (common ragweed, Ambrosia elatior); test: Test A preemergence, visual injury rating
Procedure, shortened: as §2

[18] = system: giant foxtail (Setaria faberii); test: Test A preemergence, visual injury rating
Procedure, shortened: as §2

[19] = 31 g ai/ha, 0 to 100 scale (0 no effect, 100 complete control)
[20] = 125 g ai/ha, 0 to 100 scale, 0 is no effect, 100 is complete control, approximately 10 days
[21] = 31 g ai/ha, 0 to 100 scale, 0 no effect, 100 complete control
[22] = 125 g ai/ha, 0 to 100 scale (0 no effect, 100 complete control)
[23] = 125 g ai/ha, 0 is no effect, 100 is complete control
[24] = 500 g ai/ha, 0 is no effect, 100 is complete control
[25] = 500 g ai/ha, 0 to 100 scale (0 no effect, 100 complete control)

## CCc1cccc(Oc2ncc(Cl)cn2)c1CCCCC(F)(F)F [Compound 134]
[1]
  Plant response rating, Ducksalad: 95
[2]
  Plant response rating, Barnyardgrass: 0
Rice (Oryza sativa)
  Plant response rating, Rice: 20
[3]
  Plant response rating, Sedge, Umbrella: 95
[4]; [19]
  Wheat plant response rating: 0
[4]; [20]
  Wheat plant response rating: 10
[5]; [19]
  Blackgrass plant response rating: 10
[5]; [20]
  Blackgrass plant response rating: 20
[6]; [19]
  Ryegrass, Italian plant response rating: 0
[6]; [20]
  Ryegrass, Italian plant response rating: 10
Corn (Zea mays); [19]
  Corn plant response rating: 10
Corn (Zea mays); [20]
  Corn plant response rating: 10
[7]; [19]
  Galium plant response rating: 10
[7]; [20]
  Galium plant response rating: 40
[8]; 31 g ai/ha
  Barnyardgrass plant response rating: 0
[8]; 125 g ai/ha
  Barnyardgrass plant response rating: 20
[9]; [19]
  Pigweed plant response rating: 40
[9]; [20]
  Pigweed plant response rating: 80
Kochia (Kochia scoparia) [10]; [19]
  Kochia plant response rating: 20
Kochia (Kochia scoparia) [10]; [20]
  Kochia plant response rating: 60
[11]; [19]
  Ragweed plant response rating: 0
[11]; [20]
  Ragweed plant response rating: 10
[12]; [19]
  Foxtail, Giant plant response rating: 10
[12]; [20]
  Foxtail, Giant plant response rating: 20
[13]; [21]
  Plant response rating, Ryegrass, Italian: 0
[13]; [22]
  Plant response rating, Ryegrass, Italian: 20
[14]; [21]
  Plant response rating, Barnyardgrass: 0
[14]; [22]
  Plant response rating, Barnyardgrass: 80
[15]; [21]
  Plant response rating, Pigweed: 0
[15]; [22]
  Plant response rating, Pigweed: 50
Kochia (Kochia scoparia) [16]; [21]
  Plant response rating, Kochia: 0
Kochia (Kochia scoparia) [16]; [22]
  Plant response rating, Kochia: 10
[17]; [21]
  Plant response rating, Ragweed: 0
[17]; [22]
  Plant response rating, Ragweed: 0
[18]; [21]
  Plant response rating, Foxtail, Giant: 10
[18]; [22]
  Plant response rating, Foxtail, Giant: 90

## N#CCOC(=O)c1c(F)cccc1Oc1ncc(Cl)cn1 [Compound 49]
[1]
  Plant response rating, Ducksalad: 0
[2]
  Plant response rating, Barnyardgrass: 20
Rice (Oryza sativa)
  Plant response rating, Rice: 20
[3]
  Plant response rating, Sedge, Umbrella: 0
[4]; [23]
  Wheat plant response rating (0 to 100 scale): 0
[4]; [24]
  Wheat plant response rating (0 to 100 scale): 0
[5]; [23]
  Blackgrass plant response rating (0 to 100 scale): 0
[5]; [24]
  Blackgrass plant response rating (0 to 100 scale): 0
[6]; [23]
  Ryegrass, Italian plant response rating (0 to 100 scale): 0
[6]; [24]
  Ryegrass, Italian plant response rating (0 to 100 scale): 0
Corn (Zea mays); [23]
  Corn plant response rating (0 to 100 scale): 0
Corn (Zea mays); [24]
  Corn plant response rating (0 to 100 scale): 0
[7]; [23]
  Galium plant response rating (0 to 100 scale): 0
[7]; [24]
  Galium plant response rating (0 to 100 scale): 0
[8]; 125 g ai/ha
  Barnyardgrass plant response rating (0 to 100 scale): 0
[8]; 500 g ai/ha
  Barnyardgrass plant response rating (0 to 100 scale): 0
[9]; [23]
  Pigweed plant response rating (0 to 100 scale): 0
[9]; [24]
  Pigweed plant response rating (0 to 100 scale): 0
Kochia (Kochia scoparia) [10]; [23]
  Kochia plant response rating (0 to 100 scale): 0
Kochia (Kochia scoparia) [10]; [24]
  Kochia plant response rating (0 to 100 scale): 0
[11]; [23]
  Ragweed plant response rating (0 to 100 scale): 0
[11]; [24]
  Ragweed plant response rating (0 to 100 scale): 0
[12]; [23]
  Foxtail, Giant plant response rating (0 to 100 scale): 0
[12]; [24]
  Foxtail, Giant plant response rating (0 to 100 scale): 0
[13]; [22]
  Ryegrass, Italian plant response rating: 0
[13]; [25]
  Ryegrass, Italian plant response rating: 0
[14]; [22]
  Barnyardgrass plant response rating: 0
[14]; [25]
  Barnyardgrass plant response rating: 0
[15]; [22]
  Pigweed plant response rating: 0
[15]; [25]
  Pigweed plant response rating: 0
Kochia (Kochia scoparia) [16]; [22]
  Kochia plant response rating: 0
Kochia (Kochia scoparia) [16]; [25]
  Kochia plant response rating: 0
[17]; [22]
  Ragweed plant response rating: 0
[17]; [25]
  Ragweed plant response rating: 0
[18]; [22]
  Foxtail, Giant plant response rating: 0
[18]; [25]
  Foxtail, Giant plant response rating: 0

## O=C(OCC(F)(F)F)c1c(F)cccc1Oc1ncc(Br)cn1 [Compound 47]
[1]
  Plant response rating, Ducksalad: 0
[2]
  Plant response rating, Barnyardgrass: 0
Rice (Oryza sativa)
  Plant response rating, Rice: 0
[3]
  Plant response rating, Sedge, Umbrella: 0
[4]; [23]
  Wheat plant response rating (0 to 100 scale): 0
[4]; [24]
  Wheat plant response rating (0 to 100 scale): 0
[5]; [23]
  Blackgrass plant response rating (0 to 100 scale): 0
[5]; [24]
  Blackgrass plant response rating (0 to 100 scale): 0
[6]; [23]
  Ryegrass, Italian plant response rating (0 to 100 scale): 0
[6]; [24]
  Ryegrass, Italian plant response rating (0 to 100 scale): 0
Corn (Zea mays); [23]
  Corn plant response rating (0 to 100 scale): 0
Corn (Zea mays); [24]
  Corn plant response rating (0 to 100 scale): 0
[7]; [23]
  Galium plant response rating (0 to 100 scale): 0
[7]; [24]
  Galium plant response rating (0 to 100 scale): 0
[8]; 125 g ai/ha
  Barnyardgrass plant response rating (0 to 100 scale): 0
[8]; 500 g ai/ha
  Barnyardgrass plant response rating (0 to 100 scale): 0
[9]; [23]
  Pigweed plant response rating (0 to 100 scale): 0
[9]; [24]
  Pigweed plant response rating (0 to 100 scale): 0
Kochia (Kochia scoparia) [10]; [23]
  Kochia plant response rating (0 to 100 scale): 0
Kochia (Kochia scoparia) [10]; [24]
  Kochia plant response rating (0 to 100 scale): 0
[11]; [23]
  Ragweed plant response rating (0 to 100 scale): 0
[11]; [24]
  Ragweed plant response rating (0 to 100 scale): 0
[12]; [23]
  Foxtail, Giant plant response rating (0 to 100 scale): 0
[12]; [24]
  Foxtail, Giant plant response rating (0 to 100 scale): 0
[13]; [22]
  Ryegrass, Italian plant response rating: 0
[13]; [25]
  Ryegrass, Italian plant response rating: 0
[14]; [22]
  Barnyardgrass plant response rating: 0
[14]; [25]
  Barnyardgrass plant response rating: 0
[15]; [22]
  Pigweed plant response rating: 0
[15]; [25]
  Pigweed plant response rating: 0
Kochia (Kochia scoparia) [16]; [22]
  Kochia plant response rating: 0
Kochia (Kochia scoparia) [16]; [25]
  Kochia plant response rating: 0
[17]; [22]
  Ragweed plant response rating: 0
[17]; [25]
  Ragweed plant response rating: 0
[18]; [22]
  Foxtail, Giant plant response rating: 0
[18]; [25]
  Foxtail, Giant plant response rating: 0
